Measured values reported in patent US20170101684A1, “METHOD FOR DIAGNOSING AND TREATING MULTIPLE MYELOMA” (Erasmus University Medical Center Rotterdam, priority 2014, published 2017).

Tests used:
[1] = tested on: MM subjects without the amp1q chromosomal aberration; assay: Response of MM patients without amp1q to proteasome inhibitor; type: in vivo, human
From the text: Methods for determining whether a subject with MM has an amp1q chromosomal aberration are known in the art, and any such methods may be used in aspects of this disclosure, although preferred embodiments will be disclosed herein below.

[2] = tested on: MM patients with amp1q chromosomal aberration; assay: Overall survival (Kaplan Meier) of MM patients with amp1q by classical FISH, PAD versus VAD; type: in vivo, human; settings: MM patients with an amp1q chromosomal aberration
From the text: FIG. 1: Kaplan Meier curve showing 60 MM patients (see Table 2) identified as having an additional copy of chromosome 1q (amp1q) using classical FISH analysis. […] Upper line: amp1q cases treated with PAD; lower line: amp1q cases treated with VAD. Hazard Ratio=3.59, p=0.0037.
FIG. 1 provides a Kaplan-Meier curve wherein the top line represents amp1q cases treated with Bortezomib (a proteasome inhibitor), Adriamycin and Dexamethasone (PAD), and the bottom line represents amp1q cases treated with a conventional therapy (Vincristine Adriamycin Dexamethasone or VAD). A Hazard Ratio of 3.59 (p=0.0037) was found. It was concluded that MM patients with amp1q may be preferentially treated with a proteasome inhibitor such as Bortezomib since that provides these patients with a better life expectancy.
FISH analysis was performed in 304 patients. In nonpurified plasma cell samples (n=125), at least 200 interphase nuclei per sample were analyzed by the use of epi-fluorescence microscopy and image analysis software. Within several cases, a preceding analysis of selected myeloma cells was determined by immunoglobulin light chain counterstaining or morphology. In CD138-purified PC samples (n=179), 100 nuclei were evaluated by the use of an epifluorescence microscope (Leica Microsystems). […]

`CC(C)C[C@H](NC(=O)[C@H](Cc1ccccc1)NC(=O)c1cnccn1)B(O)O` [Bortezomib] was tested, and the Response to treatment [1] was “do not experience this advantageous response” and the Response to treatment [2] was “respond well”.
